Some test systems named below: MOLT-4; OVCAR-5; SK-MEL-2; HOP-92; SN12C; SNB-75; OVCAR-8; 786-0; EKVX; RPMI-8226; NCI-H23; A498; LOX IMVI; ACHN; DMS-273; HT-29; HCC 2998; DU-145; T47D; MCF7.
Holding throughout (experiment): NCI-60 cell line screen, 48 h

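Growth conditions: 96-well plates. Treatment: test compound, 48 hours, 5 concentrations. Analysis: linear interpolation between bracketing concentrations; unreached endpoints set to highest concentration. The concentration for 50% growth inhibition is given as GI50.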 Calls of active or inactive are those of the source. No stated cut-off is given here; in the data, active = GI50 up to about 1.1 µM and inactive = higher.

For the compound `c1ccc2c(CNCCCN3CCN(CCCNCc4cccc5ccccc45)CC3)cccc2c1`, the GI50 was 1.22 µM (inactive) in the assay with MOLT-4; 2.15 µM (inactive) in the assay with OVCAR-5; 1.65 µM (inactive) with SK-MEL-2; 1.74 µM (inactive) with HOP-92; 3.68 µM (inactive) in the assay on SN12C; 1.74 µM (inactive) with SNB-75. Besides, the GI50 in the assay on OVCAR-8 was 1.77 µM (inactive); in the assay on 786-0 it was 1.91 µM (inactive); with EKVX it was 3.6 µM (inactive); with RPMI-8226 it was 1.03 µM (active); in the assay on NCI-H23, 11.4 µM (inactive); in the assay on A498 it was 10.9 µM (inactive). Also, the GI50 is 1.35 µM (inactive) with LOX IMVI, 2.75 µM (inactive) in the assay on ACHN, 1.97 µM (inactive) in the assay on DMS-273 and 1.65 µM (inactive) in the assay on HT-29.

With `CCC(=O)c1cn(C)c(=O)c2ccccc12`, the GI50 with MOLT-4 is > 100 µM (inactive); in the assay with OVCAR-5 it was > 100 µM (inactive); in the assay with SK-MEL-2, > 100 µM (inactive); with HOP-92, > 100 µM (inactive); in the assay on SN12C, > 100 µM (inactive); in the assay on SNB-75, 36.5 µM (inactive). Also, the GI50 with OVCAR-8, in the assay on HCC 2998, with 786-0, in the assay with EKVX, with RPMI-8226 and in the assay with NCI-H23 was > 100 µM (inactive) in each case. Also, the GI50 with LOX IMVI, with ACHN, in the assay on DMS-273 and in the assay with HT-29 was > 100 µM (inactive) throughout.

On to `S=c1sc2c(n1-c1ccccc1)N=CNC2S` (stereo not given), for which the GI50 in the assay with MOLT-4 is 92.5 µM (inactive); in the assay with OVCAR-5, > 100 µM (inactive); in the assay with SK-MEL-2 it was > 100 µM (inactive); with HOP-92, 25.9 µM (inactive); in the assay on SN12C, 69.3 µM (inactive); in the assay on SNB-75 it was 56.6 µM (inactive). Moreover, the GI50 in the assay on OVCAR-8 is > 100 µM (inactive); in the assay on HCC 2998, 33.1 µM (inactive); in the assay on 786-0 it was > 100 µM (inactive); in the assay with EKVX, 64.1 µM (inactive); in the assay with RPMI-8226, 62.2 µM (inactive); in the assay on NCI-H23, 63 µM (inactive). Further, the GI50 is > 100 µM (inactive) in the assay with LOX IMVI, 60.5 µM (inactive) in the assay on ACHN, > 100 µM (inactive) in the assay with DMS-273 and > 100 µM (inactive) in the assay on HT-29.

Take `COc1ccc(NC(=O)CC(=O)n2nc(-c3ccccc3)c(/N=N/c3ccccc3C(=O)O)c2-c2ccccc2)cc1`: the GI50 is 40.6 µM (inactive) in the assay with MOLT-4; > 100 µM (inactive) in the assay with OVCAR-5; > 100 µM (inactive) in the assay with SK-MEL-2; 18.5 µM (inactive) in the assay on HOP-92; > 100 µM (inactive) with SN12C; 25.2 µM (inactive) with OVCAR-8. The GI50 with HCC 2998 was > 100 µM (inactive); with 786-0, 21.9 µM (inactive); with EKVX, 34.6 µM (inactive); with RPMI-8226 it was > 100 µM (inactive); in the assay with NCI-H23, > 100 µM (inactive); in the assay with LOX IMVI, > 100 µM (inactive). The GI50 with ACHN and with DMS-273 was > 100 µM (inactive) throughout.

For `COc1ccc2c(c1)[n+]([O-])c(C(N)=O)c(N)[n+]2[O-]`, the GI50 with OVCAR-5 was > 100 µM (inactive); in the assay with SK-MEL-2, > 100 µM (inactive); in the assay on HOP-92 it was > 100 µM (inactive); in the assay on SN12C, > 100 µM (inactive); in the assay on SNB-75 it was 65.6 µM (inactive); in the assay with OVCAR-8 it was 95.3 µM (inactive). Further, the GI50 was 93.1 µM (inactive) with 786-0; > 100 µM (inactive) in the assay with EKVX; > 100 µM (inactive) in the assay on RPMI-8226; 28.8 µM (inactive) with NCI-H23; > 100 µM (inactive) with A498; > 100 µM (inactive) in the assay on ACHN. Further, the figures for the GI50 in the assay on DMS-273 and in the assay with HT-29 were 71.9 µM (inactive) and 61.9 µM (inactive), respectively.

On to `CCOC(=O)C/C(=N\c1cc(C)on1)N(CC)CC.[O-][Cl+3]([O-])([O-])O`, for which the GI50 with MOLT-4, in the assay on OVCAR-5, with SK-MEL-2, with HOP-92, in the assay on SN12C and with SNB-75 was > 100 µM (inactive) throughout. Moreover, the GI50 in the assay on OVCAR-8, in the assay with 786-0, in the assay on EKVX, in the assay on RPMI-8226, in the assay on NCI-H23 and in the assay with A498 was > 100 µM (inactive) each time. The GI50 in the assay on ACHN, in the assay on DMS-273 and in the assay on HT-29 was > 100 µM (inactive) in each case.

`O=C1/C(=C/c2c(Cl)[nH]c3ccccc23)c2ccccc2N1c1ccccc1`: the GI50 was 4.22 µM (inactive) with MOLT-4; 12.9 µM (inactive) with OVCAR-5; 3.36 µM (inactive) with SK-MEL-2; 7.43 µM (inactive) in the assay with DU-145; 9.44 µM (inactive) in the assay on HOP-92; 6.19 µM (inactive) in the assay on SN12C. For the same compound, the GI50 in the assay on SNB-75 is 6.81 µM (inactive); in the assay on OVCAR-8 it was 4.35 µM (inactive); with HCC 2998, 8.97 µM (inactive); with 786-0 it was 6.56 µM (inactive); in the assay on T47D, 3.37 µM (inactive); in the assay on EKVX, 3.16 µM (inactive). The GI50 is 2.92 µM (inactive) with RPMI-8226; 5.32 µM (inactive) with NCI-H23; 10.4 µM (inactive) in the assay with A498; 3.66 µM (inactive) in the assay on LOX IMVI; 7.01 µM (inactive) in the assay with ACHN; 4.02 µM (inactive) with MCF7. In the assay with HT-29, the GI50 was 3.53 µM (inactive).

For `O=[N+]([O-])c1cc2c(cc1O)[nH]c1cccc([N+](=O)[O-])c12`, the GI50 in the assay with MOLT-4, with OVCAR-5, in the assay with SK-MEL-2, with SN12C, in the assay with SNB-75 and in the assay with OVCAR-8 was > 100 µM (inactive) each time. Moreover, the GI50 with HCC 2998, in the assay with 786-0, in the assay with RPMI-8226, with NCI-H23, with LOX IMVI and in the assay with ACHN was > 100 µM (inactive) throughout. The GI50 in the assay with DMS-273 and in the assay on HT-29 was > 100 µM (inactive) each time.

Regarding `Nc1nc(Cl)c(Cl)c(NCC2(O)CCC2)n1`, the GI50 is 33 µM (inactive) in the assay on MOLT-4; > 100 µM (inactive) with OVCAR-5; > 100 µM (inactive) with SK-MEL-2; > 100 µM (inactive) in the assay with DU-145; 29.1 µM (inactive) with HOP-92; > 100 µM (inactive) in the assay with SN12C. In addition, the GI50 in the assay on SNB-75 is > 100 µM (inactive); with OVCAR-8, 92.9 µM (inactive); in the assay with HCC 2998 it was 88.3 µM (inactive); with 786-0, > 100 µM (inactive); with T47D, 2.76 µM (inactive); in the assay with EKVX, 22 µM (inactive). Moreover, the GI50 is 42 µM (inactive) in the assay with RPMI-8226; 38.9 µM (inactive) with NCI-H23; 11.4 µM (inactive) with A498; 28.5 µM (inactive) in the assay with LOX IMVI; > 100 µM (inactive) in the assay on ACHN; 74.1 µM (inactive) in the assay on MCF7. Also, in the assay on HT-29, the GI50 was > 100 µM (inactive).

Take `CCOC(=O)Nc1nc(-c2ccccc2)c(C)s1`: the GI50 in the assay on MOLT-4 was 7.35 µM (inactive); in the assay with OVCAR-5 it was > 100 µM (inactive); in the assay on SK-MEL-2 it was > 100 µM (inactive); in the assay on DU-145, 52.6 µM (inactive); in the assay on HOP-92 it was 11.7 µM (inactive); in the assay on SN12C, > 100 µM (inactive). For the same compound, the GI50 in the assay on SNB-75 was 31.8 µM (inactive); in the assay on OVCAR-8, > 100 µM (inactive); with HCC 2998, > 100 µM (inactive); in the assay on 786-0, > 100 µM (inactive); with T47D, 47.3 µM (inactive); with EKVX, 23.7 µM (inactive). Besides, the GI50 in the assay with RPMI-8226 was > 100 µM (inactive); in the assay with NCI-H23, 81.1 µM (inactive); with A498 it was > 100 µM (inactive); in the assay with LOX IMVI, > 100 µM (inactive); in the assay on ACHN it was > 100 µM (inactive); with MCF7, 56.4 µM (inactive). In addition, in the assay with HT-29, the GI50 is 48.6 µM (inactive).

As for `NS(=O)(=O)c1ccc(NC(=O)Nc2ccccc2F)cc1`, the GI50 in the assay with MOLT-4, in the assay on OVCAR-5, with SK-MEL-2, in the assay with DU-145, in the assay with HOP-92 and with SN12C was > 100 µM (inactive) in each case. Also, the GI50 was > 100 µM (inactive) with SNB-75; > 100 µM (inactive) in the assay on OVCAR-8; > 100 µM (inactive) with HCC 2998; > 100 µM (inactive) with 786-0; 52.5 µM (inactive) in the assay with T47D; > 100 µM (inactive) with EKVX. The GI50 with RPMI-8226, in the assay with NCI-H23, with A498, in the assay on LOX IMVI, with ACHN and with MCF7 was > 100 µM (inactive) in each case. Also, the GI50 with HT-29 is 76 µM (inactive).

On to `C/C(=N\Nc1nc2ccccc2s1)c1cc(C)ncn1`, for which the GI50 was 0.104 µM (active) in the assay with MOLT-4; 1.27 µM (inactive) in the assay with OVCAR-5; 3.78 µM (inactive) in the assay on SK-MEL-2; 2.19 µM (inactive) with DU-145; 1.54 µM (inactive) in the assay on HOP-92; 0.392 µM (active) with SN12C. Further, the GI50 was 1.34 µM (inactive) in the assay on SNB-75; 0.29 µM (active) in the assay with OVCAR-8; 1.72 µM (inactive) with HCC 2998; 0.507 µM (active) with 786-0; 0.206 µM (active) in the assay with T47D; 0.269 µM (active) in the assay with EKVX. In addition, the GI50 was 0.337 µM (active) with RPMI-8226; 0.741 µM (active) with NCI-H23; 9.93 µM (inactive) with A498; 0.499 µM (active) in the assay with LOX IMVI; 0.199 µM (active) in the assay with ACHN; 0.341 µM (active) in the assay with MCF7. Further, the GI50 with HT-29 was 0.0637 µM (active).

These data come from ChEMBL document CHEMBL1201862, “PubChem BioAssay data set” (2004).
